The subject of this assay is Jurkat T cells. The assay can be described thus: Pro-apoptotic activity on Jurkat T cells (FITC-Annexin V / 7-AAD flow cytometry). It is filed as cell-based. The note with it: Homo sapiens, 72 hours, cells stained with FITC-Annexin V and 7-AAD among total cells, read-out: Cell Apoptosis Effect to Jurkat T Cell (% in 5 μM). On the procedure: In order to investigate the effects of the prepared compounds, the apoptosis-inducing effects of the compounds on human T cell acute lymphoblastic leukemia cell line, Jurkat T cells, were evaluated in the following manner.
Jurkat T cells cultured in RPMI medium containing 10% fetal bovine serum (FBS) were collected and stained with trypan blue (Sigma). […] Then, the cells were centrifuged at 1200 rpm at room temperature for 5 minutes and re-suspended in 10% FBS-containing RPMI medium at a concentration of 1.5×10^5 cells/mL. 200 μL of the cell suspension was dispensed into each well of a flat bottom 96-well plate (Costar). Then, the cells were treated with 10 μL of the diluted compounds in RPMI medium at final concentrations of […] or 5 μM, and incubated in a 5% CO2 incubator at 37° C. for 72 hours. In a vehicle control group, the cells were treated with 10 μL of RPMI medium containing 1% of dimetylsulfoxide (DMSO, Sigma). The incubated cells were harvested, put into 5-mL FACS tubes (BD Falcon), washed with 1 mL of phosphate buffered saline (PBS), and then re-suspended in 0.1 mL of binding buffer (10 mM Hepes-NaOH, pH 7.4, 140 mM NaCl, […] CaCl2). The suspended cells were stained with fluorescein isothiocyanate (FITC)-Annexin V (BD Biosciences) and 7-amino-actinomycin D (7-AAD, e-Biosciences) at room temperature for 15 minutes. The stained cells were suspended in 0.3 mL of binding buffer and analyzed by a flow cytometer. Apoptosis was determined by the ratio (%) of cells stained with FITC-Annexin V and 7-AAD among the total cells (see Tables 10 and 11).
On the technique in general: A flow cytometer gives signals particle by particle.
Take `Cc1ccccc1OCC(=O)N/N=C/c1cccc2[nH]ccc12` [Compound 013, (E)-N′-((1H-indol-4-yl)methylene)-2-(o-tosyloxy)acetohydrazide]: the cytotoxicity at 5 µM worked out at 100%.

Turning to `Cc1ccccc1OCC(=O)N/N=C/c1ccc2[nH]ccc2c1` [Compound 014], the cytotoxicity at 5 µM came to 100%.

Take `Cc1ccccc1OCC(=O)N/N=C/c1ccc2cc[nH]c2c1` [Compound 034]: the cytotoxicity at 5 µM is 90%.

With `Cc1ccccc1OCC(=O)N/N=C/c1ccc2c(ccn2CN(C)C)c1` [Compound 072], the cytotoxicity at 5 µM was 95%.

`Cc1cc(Br)cc(C)c1OCC(=O)N/N=C/c1ccc2[nH]ccc2c1` [Compound 092, (E)-N′-((1H-indol-5-yl)methylene)-2-(4-bromo-2,6-dimethylphenoxy)acetohydrazide]: the cytotoxicity at 5 µM was 100%.

`Cc1ccccc1OCC(=O)N/N=C/c1ccc2[nH]cnc2c1` [Compound 100]: the cytotoxicity at 5 µM amounted to 90%.

For `Cc1cc(C)c(OCC(=O)N/N=C/c2cc3ccccc3[nH]2)c(C)c1` [Compound 109, (E)-N′-((1H-indol-2-yl)methylene)-2-(mesityloxy)acetohydrazide], the cytotoxicity at 5 µM was 100%.

Regarding `Cc1cc(Br)cc(C)c1OCC(=O)N/N=C/c1cccc2[nH]ccc12` [Compound 112, (E)-N′-((1H-indol-4-yl)methylene)-2-(4-bromo-2,6-dimethylphenoxy)acetohydrazide], the cytotoxicity at 5 µM worked out at 100%.

Consider `Cc1cccc(C)c1OCC(=O)N/N=C/c1cccc2[nH]ccc12` [Compound 118, (E)-N′-((1H-indol-4-yl)methylene)-2-(2,6-dimethylphenoxy)acetohydrazide], for which the cytotoxicity at 5 µM was determined as 100%.

Consider `CC(C)c1cccc(C(C)C)c1OCC(=O)N/N=C/c1cccc2[nH]ccc12` [Compound 121, (E)-N′-((1H-indol-4-yl)methylene)-2-(2,6-diisopropylphenoxy)acetohydrazide], for which the cytotoxicity at 5 µM turned out to be 100%.

On to `Cc1cc(C(C)(C)C)c(OCC(=O)N/N=C/c2cccc3[nH]ccc23)c(C(C)(C)C)c1` [Compound 127, (E)-N′-((1H-indol-4-yl)methylene)-2-(2,6-di-tert-butyl-4-methylphenoxy)acetohydrazide], for which the cytotoxicity at 5 µM worked out at 100%.

`Cc1cc(Br)cc(C)c1OCC(=O)N/N=C/c1ccc2cc[nH]c2c1` [Compound 133, (E)-N′-((1H-indol-6-yl)methylene)-2-(4-bromo-2,6-dimethylphenoxy)acetohydrazide]: the cytotoxicity at 5 µM is 100%.

On to `Cc1cc(C)c(NCC(=O)N/N=C/c2cccc3[nH]ccc23)c(C)c1` [Compound 135, (E)-N′-((1H-indol-4-yl)methylene)-2-(mesitylamino)acetohydrazide], for which the cytotoxicity at 5 µM amounted to 100%.

Take `Cc1cc(C)c(NCC(=O)N/N=C/c2c[nH]c3ccccc23)c(C)c1` [Compound 136]: the cytotoxicity at 5 µM came out at 100%.

Consider `Cc1cc(-c2cccnc2)cc(C)c1OCC(=O)N/N=C/c1cccc2[nH]ccc12` [Compound 137, (E)-N′-((1H-indol-4-yl)methylene)-2-(2,6-dimethyl-4-(pyridin-3-yl)phenoxy)acetohydrazide], for which the cytotoxicity at 5 µM turned out to be 100%.

`Cc1cc(-c2cccnc2)cc(C)c1OCC(=O)N/N=C/c1c[nH]c2ccccc12` [Compound 138]: the cytotoxicity at 5 µM turned out to be 90%.

Turning to `Cc1cc(-c2cccnc2)cc(C)c1OCC(=O)N/N=C/c1ccc2cc[nH]c2c1` [Compound 139, (E)-N′-((1H-indol-6-yl)methylene)-2-(2,6-dimethyl-4-(pyridin-3-yl)phenoxy)acetohydrazide], the cytotoxicity at 5 µM came to 100%.

In the case of `O=C(COc1ccccc1-c1cccnc1)N/N=C/c1cccc2[nH]ccc12` [Compound 146, (E)-N′-((1H-indol-4-yl)methylene)-2-(2-(pyridin-3-yl)phenoxy)acetohydrazide], the cytotoxicity at 5 µM came to 100%.

For `Cc1cc(C)c(SCC(=O)N/N=C/c2cccc3[nH]ccc23)c(C)c1` [Compound 147, (E)-N′-((1H-indol-4-yl)methylene)-2-(mesitylthio)acetohydrazide], the cytotoxicity at 5 µM worked out at 100%.

For `Cc1cc(-c2cncnc2)cc(C)c1OCC(=O)N/N=C/c1cccc2[nH]ccc12` [Compound 149, (E)-N′-((1H-indol-4-yl)methylene)-2-(2,6-dimethyl-4-(pyrimidin-5-yl)phenoxy)acetohydrazide], the cytotoxicity at 5 µM was found to be 100%.

Turning to `Cc1cc(-c2cnc(N)nc2)cc(C)c1OCC(=O)N/N=C/c1ccc2cc[nH]c2c1` [Compound 152, (E)-N′-((1H-indol-6-yl)methylene)-2-(4-(2-aminopyrimidin-5-yl)-2,6-dimethylphenoxy)acetohydrazide], the cytotoxicity at 5 µM stood at 90%.

In the case of `Cc1cc(Cl)cc(C)c1OCC(=O)N/N=C/c1cccc2[nH]ccc12` [Compound 155, (E)-N′-((1H-indol-4-yl)methylene)-2-(4-chloro-2,6-dimethylphenoxy)acetohydrazide], the cytotoxicity at 5 µM was determined as 100%.

Turning to `Cc1cc(Cl)cc(C)c1OCC(=O)N/N=C/c1c[nH]c2ccccc12` [Compound 156, (E)-N′-((1H-indol-3-yl)methylene)-2-(4-chloro-2,6-dimethylphenoxy)acetohydrazide], the cytotoxicity at 5 µM was found to be 90%.

With `Cc1cc(Cl)cc(C)c1OCC(=O)N/N=C/c1ccc2cc[nH]c2c1` [Compound 157, (E)-N′-((1H-indol-6-yl)methylene)-2-(4-chloro-2,6-dimethylphenoxy)acetohydrazide], the cytotoxicity at 5 µM amounted to 100%.

With `Cc1cc(C)c(SCC(=O)N/N=C/c2c[nH]c3ccccc23)c(C)c1` [Compound 158, (E)-N′-((1H-indol-3-yl)methylene)-2-(mesitylthio)acetohydrazide], the cytotoxicity at 5 µM amounted to 100%.

For `Cc1cc(C)c(SCC(=O)N/N=C/c2ccc3cc[nH]c3c2)c(C)c1` [Compound 159, (E)-N′-((1H-indol-6-yl)methylene)-2-(mesitylthio)acetohydrazide], the cytotoxicity at 5 µM stood at 100%.

Take `Cc1cc(C)c(OCC(=O)N(C)/N=C/c2cccc3c2ccn3C)c(C)c1` [Compound 164, (E)-2-(mesityloxy)-N-methyl-N′-((1-methyl-1H-indol-4-yl)methylene)acetohydrazide]: the cytotoxicity at 5 µM is 100%.

Take `Cc1cc(C)c(OCC(=O)N(CCO)/N=C/c2cccc3[nH]ccc23)c(C)c1` [Compound 177, (E)-N′-((1H-indol-4-yl)methylene)-N-(2-hydroxyethyl)-2-(mesityloxy)acetohydrazide]: the cytotoxicity at 5 µM was 100%.

As for `Cc1cc(C)c(OCC(=O)N/N=C/c2cccc3c2ccn3CCO)c(C)c1` [Compound 180, (E)-N′-((1-(2-hydroxyethyl)-1H-indol-4-yl)methylene)-2-(mesityloxy)acetohydrazide], the cytotoxicity at 5 µM came to 90%.

`Cc1cc(C)c(OCC(=O)N/N=C/c2cccc3[nH]ccc23)c(-c2cccnc2)c1` [Compound 182, (E)-N′-((1H-indol-4-yl)methylene)-2-(2,4-dimethyl-6-(pyridin-3-yl)phenoxy)acetohydrazide]: the cytotoxicity at 5 µM came to 100%.

`Cc1cc(C)c(OCC(=O)N/N=C/c2ccc3cc[nH]c3c2)c(-c2cccnc2)c1` [Compound 183, (E)-N′-((1H-indol-6-yl)methylene)-2-(2,4-dimethyl-6-(pyridin-3-yl)phenoxy)acetohydrazide]: the cytotoxicity at 5 µM amounted to 100%.

For the origin of these results see patent US9447083B2, “N-acylhydrazone derivatives for selective T cell inhibitor and anti-lymphoid malignancy drug” (CHONG KUN DANG PHARMACEUTICAL CORP., priority 2012, dated 2016).
